Data on 15 molecules can be found in US10513521B2, “Compositions and methods for inhibiting BMP” (The Brigham and Women's Hospital, Inc., priority 2014, dated 2019).

Structures are written as SMILES. Counter-ions that a name gives are not always drawn.

Test [1] has as its target ALK1 (Homo sapiens, UniProt P37023). The test can be described thus: TR-FRET enzymatic ALK kinase assay, ALK1.
The target of test [2] is T1, ALK2 (Homo sapiens, UniProt Q04771).
T1 sequence (Q04771 21-509): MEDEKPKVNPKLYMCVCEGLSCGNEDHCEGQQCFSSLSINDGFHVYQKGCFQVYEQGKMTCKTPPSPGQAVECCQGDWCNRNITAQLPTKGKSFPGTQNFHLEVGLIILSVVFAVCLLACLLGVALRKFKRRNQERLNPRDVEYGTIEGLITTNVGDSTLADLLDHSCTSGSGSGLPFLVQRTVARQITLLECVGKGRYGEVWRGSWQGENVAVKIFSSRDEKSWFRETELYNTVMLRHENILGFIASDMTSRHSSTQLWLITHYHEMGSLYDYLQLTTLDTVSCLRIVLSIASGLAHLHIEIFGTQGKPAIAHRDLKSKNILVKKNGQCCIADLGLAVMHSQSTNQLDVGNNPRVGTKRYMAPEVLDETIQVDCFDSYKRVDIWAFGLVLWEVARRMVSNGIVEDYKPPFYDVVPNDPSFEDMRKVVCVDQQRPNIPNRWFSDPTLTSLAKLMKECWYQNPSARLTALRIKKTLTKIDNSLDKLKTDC
As to the kind of experiment: TR-FRET enzymatic ALK kinase assay, ALK2.

In test [3] the target is ALK3 (Homo sapiens, UniProt P36894). The test can be described thus: TR-FRET enzymatic ALK kinase assay, ALK3.
The target in test [4] is T2, ALK4 (Homo sapiens, UniProt P36896).
T2 sequence (P36896 24-505): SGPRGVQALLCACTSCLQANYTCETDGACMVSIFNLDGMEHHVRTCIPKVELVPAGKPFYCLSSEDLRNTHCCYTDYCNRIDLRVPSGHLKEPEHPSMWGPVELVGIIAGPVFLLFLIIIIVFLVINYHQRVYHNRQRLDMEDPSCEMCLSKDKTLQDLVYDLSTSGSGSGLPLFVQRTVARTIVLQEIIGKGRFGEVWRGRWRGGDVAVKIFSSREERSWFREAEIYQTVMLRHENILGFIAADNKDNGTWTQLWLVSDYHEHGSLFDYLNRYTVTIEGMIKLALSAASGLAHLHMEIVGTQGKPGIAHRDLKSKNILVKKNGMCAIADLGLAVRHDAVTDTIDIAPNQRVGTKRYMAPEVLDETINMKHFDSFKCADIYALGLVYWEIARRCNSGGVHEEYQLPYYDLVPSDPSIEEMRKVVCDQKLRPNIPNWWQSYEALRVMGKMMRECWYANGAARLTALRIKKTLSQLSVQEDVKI
As to the kind of experiment: TR-FRET enzymatic ALK kinase assay, ALK4.

Test [5] concerns the target T3, ALK5 (Homo sapiens, UniProt P36897).
T3 sequence (P36897 34-503): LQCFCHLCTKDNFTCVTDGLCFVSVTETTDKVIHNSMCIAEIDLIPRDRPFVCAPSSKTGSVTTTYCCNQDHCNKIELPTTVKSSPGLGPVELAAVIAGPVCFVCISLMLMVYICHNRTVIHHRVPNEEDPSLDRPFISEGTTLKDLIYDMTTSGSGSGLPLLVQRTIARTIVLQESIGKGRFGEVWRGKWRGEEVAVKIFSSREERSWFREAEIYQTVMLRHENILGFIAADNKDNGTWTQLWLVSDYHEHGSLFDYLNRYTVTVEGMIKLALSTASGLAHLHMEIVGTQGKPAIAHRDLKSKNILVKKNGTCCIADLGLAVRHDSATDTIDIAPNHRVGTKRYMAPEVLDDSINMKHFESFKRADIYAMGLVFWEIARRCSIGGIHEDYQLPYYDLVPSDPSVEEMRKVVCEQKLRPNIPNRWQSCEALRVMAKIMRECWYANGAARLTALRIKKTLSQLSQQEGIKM
The test can be described thus: TR-FRET enzymatic ALK kinase assay, ALK5.

The target of test [6] is ALK6 (Homo sapiens, UniProt O00238). The test can be described thus: TR-FRET enzymatic ALK kinase assay, ALK6.
Sequence of ALK6 (O00238 14-502): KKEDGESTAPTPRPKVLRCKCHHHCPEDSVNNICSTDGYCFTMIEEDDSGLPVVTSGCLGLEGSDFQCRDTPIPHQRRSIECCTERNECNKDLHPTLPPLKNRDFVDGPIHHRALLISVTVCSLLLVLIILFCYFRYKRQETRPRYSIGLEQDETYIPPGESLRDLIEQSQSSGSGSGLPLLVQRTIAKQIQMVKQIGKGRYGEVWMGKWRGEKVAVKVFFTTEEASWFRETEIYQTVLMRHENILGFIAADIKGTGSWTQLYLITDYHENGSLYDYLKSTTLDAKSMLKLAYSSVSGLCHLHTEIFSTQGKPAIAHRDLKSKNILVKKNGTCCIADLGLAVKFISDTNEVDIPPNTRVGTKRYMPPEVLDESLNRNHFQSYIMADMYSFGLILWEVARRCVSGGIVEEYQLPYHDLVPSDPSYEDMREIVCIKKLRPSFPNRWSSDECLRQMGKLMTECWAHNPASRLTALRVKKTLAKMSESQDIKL

Sequence of ALK3 (P36894 24-532): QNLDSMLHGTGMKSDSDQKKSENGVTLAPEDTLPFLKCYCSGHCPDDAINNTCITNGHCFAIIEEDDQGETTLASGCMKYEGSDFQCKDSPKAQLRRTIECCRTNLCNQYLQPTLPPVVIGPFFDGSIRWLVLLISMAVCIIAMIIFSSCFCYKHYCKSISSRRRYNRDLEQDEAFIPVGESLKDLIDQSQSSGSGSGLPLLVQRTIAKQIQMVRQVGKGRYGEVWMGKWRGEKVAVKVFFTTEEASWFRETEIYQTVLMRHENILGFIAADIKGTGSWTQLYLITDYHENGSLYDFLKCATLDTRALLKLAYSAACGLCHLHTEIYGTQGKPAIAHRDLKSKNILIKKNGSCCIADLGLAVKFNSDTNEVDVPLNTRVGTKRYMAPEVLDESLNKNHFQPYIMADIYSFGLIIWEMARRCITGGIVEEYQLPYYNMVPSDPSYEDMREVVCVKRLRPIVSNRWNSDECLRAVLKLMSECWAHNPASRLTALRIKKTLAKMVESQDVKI
Sequence of ALK1 (P37023 22-503): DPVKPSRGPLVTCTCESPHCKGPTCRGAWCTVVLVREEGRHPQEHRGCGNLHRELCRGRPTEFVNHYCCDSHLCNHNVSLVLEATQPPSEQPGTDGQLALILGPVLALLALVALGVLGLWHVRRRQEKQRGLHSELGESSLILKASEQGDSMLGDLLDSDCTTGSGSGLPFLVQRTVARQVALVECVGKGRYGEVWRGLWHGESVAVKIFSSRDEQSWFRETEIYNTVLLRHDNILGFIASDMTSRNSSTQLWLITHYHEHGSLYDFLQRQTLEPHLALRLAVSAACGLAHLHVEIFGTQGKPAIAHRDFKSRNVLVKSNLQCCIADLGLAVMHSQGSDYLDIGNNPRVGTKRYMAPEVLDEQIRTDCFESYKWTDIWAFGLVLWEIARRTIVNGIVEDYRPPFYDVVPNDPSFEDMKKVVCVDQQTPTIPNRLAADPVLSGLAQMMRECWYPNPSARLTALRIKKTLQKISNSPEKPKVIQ

With `C[C@@H](O)c1cccc(-c2cnn3cc(-c4ccc(OCCN5CCCCC5)cc4)cnc23)c1` [Compound 149, (R)-1-(3-(6-(4-(2-(piperidin-1-yl)ethoxy)phenyl)pyrazolo[1,5-a]pyrimidin-3-yl)phenyl)ethanol], the concentration for half-maximal inhibition (IC50) in test [1] is 4.5 µM; in test [2], 0.18 µM; in test [3] it was 6.8 µM; in test [4] it was > 10 µM; in test [5] it was > 10 µM; in test [6] it was > 10 µM.

As for `C[C@@H](O)c1cccc(-c2cnn3cc(-c4ccc(OCCN5CCCC5)cc4)cnc23)c1` [Compound 160, (R)-1-(3-(6-(4-(2-(pyrrolidin-1-yl)ethoxy)phenyl)pyrazolo[1,5-a]pyrimidin-3-yl)phenyl)ethanol], the IC50 in test [1] was 1.5 µM; in test [2], 0.19 µM; in test [3], 3.3 µM; in test [4], 8.9 µM; in test [5], > 10 µM; in test [6], > 10 µM.

For the molecule `CS(=O)(=O)c1cccc(-c2cnn3cc(-c4ccc(OC5(CN6CCC(O)C6)CC5)cc4)cnc23)c1` (stereo not drawn) [Compound 195, 1-((1-(4-(3-(3-(methylsulfonyl)phenyl)pyrazolo[1,5-a]pyrimidin-6-yl)phenoxy)cyclopropyl)methyl)pyrrolidin-3-ol], the concentration for half-maximal inhibition (IC50) in test [1] is 0.27 µM; in test [2] it was 0.022 µM; in test [3], 0.97 µM; in test [4], > 10 µM; in test [5], > 10 µM; in test [6], > 10 µM.

For `C[C@@H](O)c1cccc(-c2cnn3cc(-c4ccc(CCN5CCCC5)cc4)cnc23)c1` [Compound 156, (R)-1-(3-(6-(4-(2-(pyrrolidin-1-yl)ethyl)phenyl)pyrazolo[1,5-a]pyrimidin-3-yl)phenyl)ethanol], the half-inhibitory concentration (IC50) in test [1] was 0.84 µM; in test [2], 0.16 µM; in test [3], 6.2 µM; in test [4] it was > 10 µM; in test [5] it was > 10 µM; in test [6] it was > 10 µM.

With `C[S+](=O)([O-])c1cccc(-c2cnn3cc(-c4ccc(OC5(CN6CCCC(O)C6)CC5)cc4)cnc23)c1` (stereo not drawn) [Compound 186, 1-((1-(4-(3-(3-(methylsulfonyl)phenyl)pyrazolo[1,5-a]pyrimidin-6-yl)phenoxy)cyclopropyl)methyl)piperidin-3-ol], the 50% inhibitory concentration (IC50) is 0.27 µM in test [1]; 0.02 µM in test [2]; 0.5 µM in test [3]; > 10 µM in test [4]; > 10 µM in test [5]; > 10 µM in test [6].

With `NC(c1cccc(-c2cnn3cc(-c4ccc(OC5(CN6CCC(O)CC6)CC5)cc4)cnc23)c1)C(F)(F)F` (stereo not drawn) [Compound 180, 1-((1-(4-(3-(3-(1-amino-2,2,2-trifluoroethyl)phenyl)pyrazolo[1,5-a]pyrimidin-6-yl)phenoxy)cyclopropyl)methyl)piperidin-4-ol], the 50% inhibitory concentration (IC50) in test [1] was 1.3 µM; in test [2] it was 0.062 µM; in test [3], 3.8 µM; in test [4], > 10 µM; in test [5], > 10 µM; in test [6], > 10 µM.

In the case of `CS(=O)(=O)c1cccc(-c2cnn3cc(-c4ccc(CCN5CCC(O)C5)cc4)cnc23)c1` (stereo not drawn) [Compound 132, 1-(4-(3-(3-(methylsulfonyl)phenyl)pyrazolo[1,5-a]pyrimidin-6-yl)phenethyl)pyrrolidin-3-ol], the IC50 was 0.63 µM in test [1]; 0.13 µM in test [2]; 6.4 µM in test [3]; > 10 µM in test [4]; > 10 µM in test [5]; > 10 µM in test [6].

In the case of `CC(O)c1cccc2c(-c3cnn4cc(-c5ccc(N6[C@H](C)CNC[C@@H]6C)cc5)cnc34)cccc12` (stereo partly drawn) [Compound 33, 1-(5-(6-(4-((2R,6S)-2,6-dimethylpiperazin-1-yl)phenyl)pyrazolo[1,5-a]pyrimidin-3-yl)naphthalen-1-yl)ethanol], the IC50 in test [1] turned out to be 1.53 µM; in test [2] it was 0.367 µM; in test [3], 7.83 µM; in test [4] it was 16.3 µM; in test [5] it was 40.4 µM; in test [6], 16.2 µM.

As to `CC(O)c1cccc(-c2cnn3cc(-c4ccc(CCN5CCOCC5)cc4)cnc23)c1` (stereo not drawn) [Compound 147, 1-(3-(6-(4-(2-morpholinoethyl)phenyl)pyrazolo[1,5-a]pyrimidin-3-yl)phenyl)ethanol], the IC50 in test [1] is 0.47 µM; in test [2] it was 0.17 µM; in test [3], > 10 µM; in test [4], > 10 µM; in test [5] it was > 10 µM; in test [6] it was > 10 µM.

`CC(=O)c1ccc(-c2cnn3cc(-c4ccc(N5[C@H](C)CNC[C@@H]5C)cc4)cnc23)c2ccccc12` [Compound 27, 1-(4-(6-(4-((2R,6S)-2,6-dimethylpiperazin-1-yl)phenyl)pyrazolo[1,5-a]pyrimidin-3-yl)naphthalen-1-yl)ethanone]: the concentration for half-maximal inhibition (IC50) is 0.109 µM in test [1]; 0.019 µM in test [2]; 0.224 µM in test [3]; 4.03 µM in test [4]; 13.5 µM in test [5]; 0.622 µM in test [6].

Consider `CC(O)c1cccc(-c2cnn3cc(-c4ccc(OCCN5CCCC5)cc4)cnc23)c1` (stereo not drawn) [Compound 145, 1-(3-(6-(4-(2-(pyrrolidin-1-yl)ethoxy)phenyl)pyrazolo[1,5-a]pyrimidin-3-yl)phenyl)ethanol], for which the IC50 in test [1] is 1 µM; in test [2] it was 0.063 µM; in test [3] it was 2.6 µM; in test [4] it was > 10 µM; in test [5], > 10 µM; in test [6], > 10 µM.

`CC(O)c1cccc(-c2cnn3cc(-c4ccc(C(F)(F)CN5CCCCC5)cc4)cnc23)c1` (stereo not drawn) [Compound 127, 1-(3-(6-(4-(1,1-difluoro-2-(piperidin-1-yl)ethyl)phenyl)pyrazolo[1,5-a]pyrimidin-3-yl)phenyl)ethanol]: the IC50 in test [1] was 4.8 µM; in test [2], 1.7 µM; in test [3], > 10 µM; in test [4], > 10 µM; in test [5] it was > 10 µM; in test [6] it was > 10 µM.

As for `CC(O)c1cccc(-c2cnn3cc(-c4ccc(OC5(CN6CCNCC6)CC5)cc4)cnc23)c1` (stereo not drawn) [Compound 168, 1-(3-(6-(4-(1-(piperazin-1-ylmethyl)cyclopropoxy)phenyl)pyrazolo[1,5-a]pyrimidin-3-yl)phenyl)ethanol], the half-maximal inhibitory concentration (IC50) in test [1] was 0.61 µM; in test [2], 0.085 µM; in test [3] it was 1.7 µM; in test [4], > 10 µM; in test [5] it was > 10 µM; in test [6], > 10 µM.

For `CS(=O)(=O)c1cccc(-c2cnn3cc(-c4ccc(CC5CCNCC5)cc4)cnc23)c1` [Compound 126, 3-(3-(methylsulfonyl)phenyl)-6-(4-(piperidin-4-ylmethyl)phenyl)pyrazolo[1,5-a]pyrimidine. TFA], the IC50 in test [1] is 0.9 µM; in test [2] it was 0.28 µM; in test [3], > 10 µM; in test [4] it was > 10 µM; in test [5], > 10 µM; in test [6] it was > 10 µM.

For the molecule `C[S+](=O)([O-])c1cccc(-c2cnn3cc(-c4ccc(OC5(CN6CCOCC6)CC5)cc4)cnc23)c1` [Compound 179, 4-((1-(4-(3-(3-(methylsulfonyl)phenyl)pyrazolo[1,5-a]pyrimidin-6-yl)phenoxy)cyclopropyl)methyl)morpholine], the IC50 in test [1] is 0.38 µM; in test [2] it was 0.031 µM; in test [3] it was 0.75 µM; in test [4], > 10 µM; in test [5], > 10 µM; in test [6] it was 3.6 µM.
